Source: ChEMBL document CHEMBL1208746, “3-Cyano-5-fluoro-N-arylbenzamides as negative allosteric modulators of mGlu(5): Identification of easily prepared tool compounds with CNS exposure in rats” (Bioorg Med Chem Lett, 2010)
The source made the active and inactive calls. The calls are words filed in the database; no cut-off is given here.

Assays:
[1] = biological target: T1, Metabotropic glutamate receptor 5 (Rattus norvegicus, UniProt P31424); assay: Antagonist activity at rat mGlu5 receptor expressed in HEK293A cells assessed as inhibition of glutamate-induced calcium mobilization; format: functional, cell-based, HEK293-A
[2] = biological target: Metabotropic glutamate receptor 5 (Rattus norvegicus) (UniProt P31424); assay: Antagonist activity at rat mGlu5 receptor expressed in HEK293A cells assessed as inhibition of glutamate-induced calcium mobilization at 30 uM relative to glutamate; format: functional, cell-based; details: HEK293-A
[3] = biological target: T1, Metabotropic glutamate receptor 5; assay: Displacement of [3H]methoxy-PEPy from rat mGlu5 receptor expressed in HEK293A cells after 60 mins by scintillation counting; format: cell-based, HEK293-A
[4] = biological target: Metabotropic glutamate receptor 1 (Homo sapiens) (UniProt Q13255); assay: Inhibition of mGlu1 receptor at 10 uM
[5] = biological target: Metabotropic glutamate receptor 2 (Homo sapiens) (UniProt Q14416); assay: Inhibition of mGlu2 receptor at 10 uM
[6] = biological target: Metabotropic glutamate receptor 3 (Homo sapiens) (UniProt Q14832); assay: Inhibition of mGlu3 receptor at 10 uM
[7] = biological target: Metabotropic glutamate receptor 4 (Homo sapiens) (UniProt Q14833); assay: Inhibition of mGlu4 receptor at 10 uM
[8] = biological target: Metabotropic glutamate receptor 7 (Homo sapiens) (UniProt Q14831); assay: Inhibition of mGlu7 receptor at 10 uM
[9] = biological target: Metabotropic glutamate receptor 8 (Homo sapiens) (UniProt O00222); assay: Inhibition of mGlu8 receptor at 10 uM
[10] = Metabolic stability in rat liver microsomes assessed as compound remaining at 1 uM after 15 mins in presence of NADPH; format: ADME, Microsome; details: read-out: Stability
[11] = Metabolic stability in human liver microsomes assessed as compound remaining at 1 uM after 15 mins in presence of NADPH; format: ADME, Microsome; details: read-out: Stability
Plasma [12] = assay: Protein binding in rat plasma by rapid equilibrium dialysis method; format: ADME, cell-free
Plasma [13] = assay: Protein binding in human plasma by rapid equilibrium dialysis method; format: ADME, cell-free
Plasma [14] = assay: Cmax in Sprague-Dawley rat plasma at 10 mg/kg, ip after 0.25 to 4 hrs; format: ADME, organism-based; parameters: dose 10 mg/kg, route intraperitoneal; details: in vivo
[15] = Cmax in Sprague-Dawley rat brain at 10 mg/kg, ip after 0.25 to 4 hrs; format: ADME, organism-based; parameters: dose 10 mg/kg, route intraperitoneal
Plasma [16] = assay: Tmax in Sprague-Dawley rat plasma at 10 mg/kg, ip after 0.25 to 4 hrs; format: ADME, organism-based; parameters: dose 10 mg/kg, route intraperitoneal; details: in vivo
Brain = assay: Tmax in Sprague-Dawley rat brain at 10 mg/kg, ip after 0.25 to 4 hrs; format: ADME, organism-based; parameters: dose 10 mg/kg, route intraperitoneal; details: in vivo
[17] = AUC (0-4 hrs) in Sprague-Dawley rat plasma at 10 mg/kg, ip; format: ADME, organism-based; parameters: time < 4 hr, dose 10 mg/kg, route intraperitoneal
[18] = AUC (0-4 hrs) in Sprague-Dawley rat brain at 10 mg/kg, ip; format: ADME, organism-based; parameters: time < 4 hr, dose 10 mg/kg, route intraperitoneal
[19] = Ratio of drug level brain to plasma in Sprague-Dawley rat at 10 mg/kg, ip; format: ADME, organism-based; parameters: dose 10 mg/kg, route intraperitoneal; details: brain and plasma

Sequence of Metabotropic glutamate receptor 5 (Rattus norvegicus) (P31424 21-1203 limits assumed): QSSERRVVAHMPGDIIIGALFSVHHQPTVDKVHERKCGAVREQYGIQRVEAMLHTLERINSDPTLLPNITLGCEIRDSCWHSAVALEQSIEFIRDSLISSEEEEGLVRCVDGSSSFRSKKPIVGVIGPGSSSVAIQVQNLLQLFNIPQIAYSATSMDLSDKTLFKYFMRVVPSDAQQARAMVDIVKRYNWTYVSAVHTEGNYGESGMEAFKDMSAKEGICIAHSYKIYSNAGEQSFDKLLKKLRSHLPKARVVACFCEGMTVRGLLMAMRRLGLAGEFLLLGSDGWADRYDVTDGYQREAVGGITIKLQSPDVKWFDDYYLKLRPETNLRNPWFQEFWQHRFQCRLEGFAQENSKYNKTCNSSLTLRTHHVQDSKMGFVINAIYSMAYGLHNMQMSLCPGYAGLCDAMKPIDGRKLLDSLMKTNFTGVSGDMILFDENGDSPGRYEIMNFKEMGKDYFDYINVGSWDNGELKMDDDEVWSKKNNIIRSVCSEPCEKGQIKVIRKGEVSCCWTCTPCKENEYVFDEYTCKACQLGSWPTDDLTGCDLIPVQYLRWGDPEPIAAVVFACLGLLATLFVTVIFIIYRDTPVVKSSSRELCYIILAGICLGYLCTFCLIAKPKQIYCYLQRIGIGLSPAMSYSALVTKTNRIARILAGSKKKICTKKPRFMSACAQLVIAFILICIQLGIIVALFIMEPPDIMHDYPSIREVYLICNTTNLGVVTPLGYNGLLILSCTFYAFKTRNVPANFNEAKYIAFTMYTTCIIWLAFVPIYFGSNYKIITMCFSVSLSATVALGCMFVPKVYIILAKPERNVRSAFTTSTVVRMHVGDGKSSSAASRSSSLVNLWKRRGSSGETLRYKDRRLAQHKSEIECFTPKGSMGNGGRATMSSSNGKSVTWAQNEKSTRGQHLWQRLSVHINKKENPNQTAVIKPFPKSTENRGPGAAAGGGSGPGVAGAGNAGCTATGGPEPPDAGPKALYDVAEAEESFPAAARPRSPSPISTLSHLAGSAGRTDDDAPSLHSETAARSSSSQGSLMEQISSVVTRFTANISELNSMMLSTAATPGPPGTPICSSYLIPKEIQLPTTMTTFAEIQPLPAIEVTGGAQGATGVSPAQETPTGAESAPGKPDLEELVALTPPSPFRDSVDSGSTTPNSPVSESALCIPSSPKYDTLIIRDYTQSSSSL
Sequence of Metabotropic glutamate receptor 2 (Homo sapiens) (Q14416 19-872 limits assumed): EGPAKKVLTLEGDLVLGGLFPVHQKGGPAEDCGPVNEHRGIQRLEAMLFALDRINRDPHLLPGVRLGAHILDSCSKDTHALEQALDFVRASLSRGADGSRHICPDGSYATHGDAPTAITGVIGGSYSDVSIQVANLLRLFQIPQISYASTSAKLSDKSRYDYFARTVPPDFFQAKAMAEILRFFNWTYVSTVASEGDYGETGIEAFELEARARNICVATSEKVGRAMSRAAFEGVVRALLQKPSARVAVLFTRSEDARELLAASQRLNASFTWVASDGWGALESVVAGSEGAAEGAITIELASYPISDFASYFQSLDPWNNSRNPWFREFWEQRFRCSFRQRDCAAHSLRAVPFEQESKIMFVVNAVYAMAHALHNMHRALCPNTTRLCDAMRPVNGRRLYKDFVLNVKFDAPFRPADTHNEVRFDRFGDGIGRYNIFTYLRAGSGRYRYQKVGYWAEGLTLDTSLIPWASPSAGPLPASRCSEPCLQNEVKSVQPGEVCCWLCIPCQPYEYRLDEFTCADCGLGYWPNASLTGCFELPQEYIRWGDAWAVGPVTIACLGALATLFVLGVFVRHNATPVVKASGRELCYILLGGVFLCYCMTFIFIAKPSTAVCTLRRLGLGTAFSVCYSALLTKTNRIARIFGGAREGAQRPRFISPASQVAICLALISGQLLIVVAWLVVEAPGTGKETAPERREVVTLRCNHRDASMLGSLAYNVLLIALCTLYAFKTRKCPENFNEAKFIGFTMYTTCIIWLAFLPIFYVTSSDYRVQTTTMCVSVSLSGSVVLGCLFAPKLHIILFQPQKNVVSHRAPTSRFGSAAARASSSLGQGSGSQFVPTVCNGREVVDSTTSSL
T1 sequence (P31424 whole entry): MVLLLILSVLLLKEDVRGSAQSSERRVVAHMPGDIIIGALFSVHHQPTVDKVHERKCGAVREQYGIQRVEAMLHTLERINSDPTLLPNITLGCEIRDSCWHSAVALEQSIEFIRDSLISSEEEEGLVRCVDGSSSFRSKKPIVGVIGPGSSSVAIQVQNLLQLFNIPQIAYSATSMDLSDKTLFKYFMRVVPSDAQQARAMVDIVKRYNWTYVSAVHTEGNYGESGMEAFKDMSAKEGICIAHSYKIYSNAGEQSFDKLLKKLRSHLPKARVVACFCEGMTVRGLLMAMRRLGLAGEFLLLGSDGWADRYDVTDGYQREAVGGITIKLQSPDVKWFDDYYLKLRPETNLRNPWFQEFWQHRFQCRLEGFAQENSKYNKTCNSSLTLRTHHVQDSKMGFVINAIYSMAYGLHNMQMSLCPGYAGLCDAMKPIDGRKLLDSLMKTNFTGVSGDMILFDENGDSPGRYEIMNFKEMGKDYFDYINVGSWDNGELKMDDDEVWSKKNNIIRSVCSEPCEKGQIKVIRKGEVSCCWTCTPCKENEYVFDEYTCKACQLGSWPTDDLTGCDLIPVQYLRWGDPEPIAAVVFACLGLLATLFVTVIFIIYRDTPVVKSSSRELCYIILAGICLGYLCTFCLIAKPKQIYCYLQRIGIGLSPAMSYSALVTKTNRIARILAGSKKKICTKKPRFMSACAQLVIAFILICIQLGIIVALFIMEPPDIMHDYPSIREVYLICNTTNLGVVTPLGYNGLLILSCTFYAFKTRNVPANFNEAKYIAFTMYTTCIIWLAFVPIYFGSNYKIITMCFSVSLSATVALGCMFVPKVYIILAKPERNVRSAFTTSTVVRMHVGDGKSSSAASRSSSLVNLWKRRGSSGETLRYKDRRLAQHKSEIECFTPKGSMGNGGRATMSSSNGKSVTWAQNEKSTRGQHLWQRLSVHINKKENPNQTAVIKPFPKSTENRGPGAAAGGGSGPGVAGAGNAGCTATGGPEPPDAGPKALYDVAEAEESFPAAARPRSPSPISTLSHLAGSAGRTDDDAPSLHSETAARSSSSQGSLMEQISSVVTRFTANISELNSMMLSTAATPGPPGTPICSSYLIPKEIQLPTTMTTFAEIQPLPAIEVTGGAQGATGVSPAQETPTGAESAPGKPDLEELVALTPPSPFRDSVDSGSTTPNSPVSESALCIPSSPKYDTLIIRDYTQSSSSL
Sequence of Metabotropic glutamate receptor 7 (Homo sapiens) (Q14831 whole entry): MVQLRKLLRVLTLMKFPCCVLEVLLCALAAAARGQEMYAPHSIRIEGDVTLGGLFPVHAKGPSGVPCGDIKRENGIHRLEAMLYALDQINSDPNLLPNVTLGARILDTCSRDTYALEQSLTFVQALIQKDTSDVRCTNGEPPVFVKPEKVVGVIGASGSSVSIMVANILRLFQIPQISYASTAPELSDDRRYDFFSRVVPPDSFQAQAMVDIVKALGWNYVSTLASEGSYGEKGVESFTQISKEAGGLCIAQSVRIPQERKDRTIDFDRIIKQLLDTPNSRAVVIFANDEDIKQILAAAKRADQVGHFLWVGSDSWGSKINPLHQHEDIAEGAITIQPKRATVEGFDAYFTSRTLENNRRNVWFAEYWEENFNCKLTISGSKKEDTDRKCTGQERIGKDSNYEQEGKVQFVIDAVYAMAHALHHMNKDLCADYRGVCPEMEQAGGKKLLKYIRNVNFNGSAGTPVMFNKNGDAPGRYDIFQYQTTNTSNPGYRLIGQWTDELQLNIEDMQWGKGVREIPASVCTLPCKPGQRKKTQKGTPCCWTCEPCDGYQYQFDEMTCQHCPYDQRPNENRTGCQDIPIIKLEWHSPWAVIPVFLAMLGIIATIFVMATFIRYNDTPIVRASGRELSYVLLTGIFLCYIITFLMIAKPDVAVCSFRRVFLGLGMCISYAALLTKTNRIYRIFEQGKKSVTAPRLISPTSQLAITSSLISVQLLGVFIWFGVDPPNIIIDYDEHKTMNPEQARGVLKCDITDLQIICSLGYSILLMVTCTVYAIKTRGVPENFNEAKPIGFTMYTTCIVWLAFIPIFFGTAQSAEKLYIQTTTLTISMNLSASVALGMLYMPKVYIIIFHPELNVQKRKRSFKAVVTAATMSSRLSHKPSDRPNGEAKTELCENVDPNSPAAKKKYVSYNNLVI
Sequence of Metabotropic glutamate receptor 8 (Homo sapiens) (O00222 whole entry): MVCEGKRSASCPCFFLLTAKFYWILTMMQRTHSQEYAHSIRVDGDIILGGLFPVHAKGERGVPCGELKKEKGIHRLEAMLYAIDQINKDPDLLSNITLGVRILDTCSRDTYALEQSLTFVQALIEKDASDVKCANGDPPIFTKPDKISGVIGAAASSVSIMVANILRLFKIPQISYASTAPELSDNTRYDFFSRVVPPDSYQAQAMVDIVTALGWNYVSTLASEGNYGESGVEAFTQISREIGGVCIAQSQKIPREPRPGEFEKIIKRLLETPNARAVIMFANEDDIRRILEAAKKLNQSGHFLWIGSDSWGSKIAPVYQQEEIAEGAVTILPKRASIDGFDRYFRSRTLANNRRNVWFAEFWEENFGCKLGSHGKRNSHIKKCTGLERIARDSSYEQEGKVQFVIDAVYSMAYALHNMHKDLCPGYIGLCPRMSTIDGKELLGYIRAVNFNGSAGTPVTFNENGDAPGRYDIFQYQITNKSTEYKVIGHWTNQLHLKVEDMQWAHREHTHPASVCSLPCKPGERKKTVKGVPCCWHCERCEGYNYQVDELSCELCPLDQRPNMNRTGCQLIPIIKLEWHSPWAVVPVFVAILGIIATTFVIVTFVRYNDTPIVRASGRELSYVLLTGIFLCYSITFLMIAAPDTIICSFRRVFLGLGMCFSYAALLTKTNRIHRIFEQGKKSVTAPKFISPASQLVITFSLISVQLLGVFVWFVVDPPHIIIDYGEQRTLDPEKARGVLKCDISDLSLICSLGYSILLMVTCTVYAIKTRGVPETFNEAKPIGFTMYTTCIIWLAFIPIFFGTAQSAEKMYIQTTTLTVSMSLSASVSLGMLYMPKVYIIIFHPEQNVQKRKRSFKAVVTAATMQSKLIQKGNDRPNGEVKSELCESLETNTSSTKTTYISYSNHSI

Structure (SMILES) | IC50 [1] | %max [2] | other results
CC(C)(C)c1cccc(NC(=O)c2cc(F)cc(C#N)c2)c1 | > 30000 nM | – | –
N#Cc1cc(F)cc(C(=O)Nc2ccccc2F)c1 | > 30000 nM | – | –
Cn1ccc(NC(=O)c2cc(F)cc(C#N)c2)n1 | > 10000 nM | 46.7% | –
Cc1ccc(NC(=O)c2cc(F)cc(C#N)c2)cc1 | > 30000 nM | – | –
N#Cc1cc(F)cc(C(=O)Nc2nccs2)c1 | > 10000 nM | 37.4% | –
N#Cc1cc(F)cc(C(=O)Nc2ccccc2Cl)c1 | > 30000 nM | – | –
CC(C)(C)c1csc(NC(=O)c2cc(F)cc(C#N)c2)n1 | > 10000 nM | 29.7% | –
COc1cccc(NC(=O)c2cc(F)cc(C#N)c2)c1 | > 10000 nM | 35.5% | –
N#Cc1cc(F)cc(C(=O)Nc2ccc(F)cc2)c1 | > 10000 nM | 69.2% | –
N#Cc1cc(F)cc(C(=O)Nc2ccc(Cl)cc2)c1 | > 30000 nM | – | –
N#Cc1cc(F)cc(C(=O)NC2CCCCC2)c1 | > 30000 nM | – | –
N#Cc1cc(F)cc(C(=O)Nc2ccncc2)c1 | > 30000 nM | – | –
Cc1cccnc1NC(=O)c1cc(F)cc(C#N)c1 | > 30000 nM | – | –
Cc1cc(C)nc(NC(=O)c2cc(F)cc(C#N)c2)c1 | > 30000 nM | – | –
COc1ccc(NC(=O)c2cc(F)cc(C#N)c2)cc1 | > 30000 nM | – | –
N#Cc1cc(F)cc(C(=O)NC2C3CC4CC(C3)CC2C4)c1 (stereo unspecified) | > 10000 nM | 34.7% | –
N#Cc1cc(F)cc(C(=O)Nc2cccc(C(F)(F)F)n2)c1 | > 10000 nM | 19.6% | –
COc1ccccc1NC(=O)c1cc(F)cc(C#N)c1 | > 30000 nM | – | –
N#Cc1cc(F)cc(C(=O)Nc2cccnc2)c1 | > 30000 nM | – | –
N#Cc1cc(F)cc(C(=O)Nc2ccon2)c1 | > 30000 nM | – | –
Cc1ccccc1NC(=O)c1cc(F)cc(C#N)c1 | > 30000 nM | – | –
CS(=O)(=O)c1cccc(NC(=O)c2cc(F)cc(C#N)c2)c1 | > 30000 nM | – | –

More lines, main results first:

IC50 [1] | %max [2] | Structure (SMILES) | other results
> 10000 nM | 38.6% | Cc1ccnc(NC(=O)c2cc(F)cc(C#N)c2)c1 | –
543 nM | 0.9% | N#Cc1cc(F)cc(C(=O)Nc2cccc(C(F)(F)F)c2)c1 | –
594 nM | 2.4% | Cc1nc(NC(=O)c2cc(F)cc(C#N)c2)sc1C | –
347 nM | 2.5% | N#Cc1cc(F)cc(C(=O)Nc2cccc(Cl)c2F)c1 | –
2160 nM | 22.1% | N#Cc1cc(F)cc(C(=O)Nc2cccc(F)c2)c1 | –
505 nM | 1.7% | CCc1cccc(NC(=O)c2cc(F)cc(C#N)c2)n1 | –
59 nM | 1% | Cc1csc(NC(=O)c2cc(F)cc(C#N)c2)n1 | Ki [3]: 102 nM; inhibition [4]: inactive; inhibition [5]: inactive; inhibition [6]: inactive; inhibition [7]: inactive; inhibition [8]: inactive; inhibition [9]: inactive; remaining at 0.25 h, 1 µM [10]: 89.9%; remaining at 0.25 h, 1 µM [11]: 70.3%; PPB (Plasma [12]): 92.4%; PPB (Plasma [13]): 98.4%; Cmax (Plasma [14]): 7650 ng/mL; Cmax [15]: 28800 ng/mL; Tmax (Plasma [16]): 15 min; Tmax (Brain): 15 min; AUC(0-t) at 4 h [17]: 17800 ng·h/mL; AUC(0-t) at 4 h [18]: 73000 ng·h/mL; Kp [19]: 4.1
377 nM | 43% | N#Cc1cc(F)cc(C(=O)Nc2ccc(F)c(Cl)c2)c1 | –
331 nM | 2.3% | C#Cc1cccc(NC(=O)c2cc(F)cc(C#N)c2)c1 | –
3780 nM | 29.8% | N#Cc1cc(F)cc(C(=O)Nc2cc(Cl)ccc2F)c1 | –
45 nM | 0.6% | N#Cc1cc(F)cc(C(=O)Nc2cccc(Cl)c2)c1 | Ki [3]: 206 nM; inhibition [4]: inactive; inhibition [5]: inactive; inhibition [6]: inactive; inhibition [7]: inactive; inhibition [8]: inactive; inhibition [9]: inactive; remaining at 0.25 h, 1 µM [10]: 96.8%; remaining at 0.25 h, 1 µM [11]: 18%; PPB (Plasma [12]): 93.7%; PPB (Plasma [13]): 97.1%; Cmax (Plasma [14]): 970 ng/mL; Cmax [15]: 1090 ng/mL; Tmax (Plasma [16]): 15 min; Tmax (Brain): 15 min; AUC(0-t) at 4 h [17]: 1200 ng·h/mL; AUC(0-t) at 4 h [18]: 1710 ng·h/mL; Kp [19]: 1.4
4940 nM | 2.4% | CCc1cccc(NC(=O)c2cc(F)cc(C#N)c2)c1 | –
5440 nM | 12.5% | N#Cc1cc(F)cc(C(=O)Nc2ccccc2)c1 | –
1510 nM | 17.3% | COc1cccc(NC(=O)c2cc(F)cc(C#N)c2)n1 | –
863 nM | 17.5% | Cc1cnc(NC(=O)c2cc(F)cc(C#N)c2)s1 | –
900 nM | 1.5% | N#Cc1cc(F)cc(C(=O)Nc2nc(C3CC3)cs2)c1 | –
3010 nM | 5.4% | N#Cc1cc(F)cc(C(=O)Nc2ccccn2)c1 | –
65 nM | 1.2% | Cc1cccc(NC(=O)c2cc(F)cc(C#N)c2)n1 | Ki [3]: 157 nM; inhibition [4]: inactive; inhibition [5]: inactive; inhibition [6]: inactive; inhibition [7]: inactive; inhibition [8]: inactive; inhibition [9]: inactive; remaining at 0.25 h, 1 µM [10]: 46.5%; remaining at 0.25 h, 1 µM [11]: 7%; PPB (Plasma [12]): 84%; PPB (Plasma [13]): 89.9%
122 nM | 2.1% | Cc1cccc(NC(=O)c2cc(F)cc(C#N)c2)c1 | Ki [3]: 100 nM; inhibition [4]: inactive; inhibition [5]: inactive; inhibition [6]: inactive; inhibition [7]: inactive; inhibition [8]: inactive; inhibition [9]: inactive; remaining at 0.25 h, 1 µM [10]: 69.7%; remaining at 0.25 h, 1 µM [11]: 19.5%; PPB (Plasma [12]): 95.3%; PPB (Plasma [13]): 98.3%
1830 nM | 38.5% | N#Cc1cc(F)cc(C(=O)Nc2cc(F)cc(Cl)c2)c1 | –
489 nM | 1.4% | N#Cc1cccc(NC(=O)c2cc(F)cc(C#N)c2)c1 | –
250 nM | 2.2% | N#Cc1cc(F)cc(C(=O)Nc2cccc(Cl)n2)c1 | –
